Results as given in ChEMBL document CHEMBL6177928, “Probing structural requirements for thiazole-based mimetics of sunitinib as potent VEGFR-2 inhibitors” (RSC Med Chem, 2025).
The source made the active and inactive calls. The rule behind the calls is not given here.

How the values were obtained:
HEp-2 = assay: cells; settings: Homo sapiens, HEp-2, 48 h
Description: Antitumor activity against human HEp-2 cells assessed as inhibition of cell viability incubated for 48 hrs by MTT assay

HCT-116 [1] = assay: cells; settings: Homo sapiens, HCT-116, 48 h
Description: Antitumor activity against human HCT-116 cells assessed as inhibition of cell viability incubated for 48 hrs by MTT assay

HepG2 = assay: cells; settings: Homo sapiens, HepG2, 48 h
Description: Antitumor activity against human HepG2 cells assessed as inhibition of cell viability incubated for 48 hrs by MTT assay

MCF7 [2] = assay: cells; settings: Homo sapiens, MCF7, 48 h
Description: Antitumor activity against human MCF7 cells assessed as inhibition of cell viability incubated for 48 hrs by MTT assay

HeLa [3] = assay: cells; settings: Homo sapiens, 48 h
Description: Antitumor activity against human HeLa cells assessed as inhibition of cell viability incubated for 48 hrs by MTT assay

WISH = assay: Cytotoxicity against human WISH cells at up to 50 uM incubated for 48 hrs by MTT assay; assay type: toxicity, cell-based
[4] = Cytotoxicity against human WISH cells incubated for 48 hrs by MTT assay; assay type: toxicity, cell-based
WI-38 = assay: Cytotoxicity against human WI-38 cells up to 50 uM incubated for 48 hrs by MTT assay; assay type: toxicity, cell-based; settings: wi-38, 48 h
[5] = Cytotoxicity against human WI-38 cells incubated for 48 hrs by MTT assay; assay type: toxicity, cell-based
Ehrlich [6] = assay: Antitumor activity against mouse EAC cells xenografted in Swiss albino mouse assessed as tumor growth inhibition at 10 mg/kg, ip measured after 10 to 20 days; assay type: functional; settings: read-out: TGI, time 10-20 day
MCF7 [7] = assay: Induction of apoptosis in human MCF7 cells assessed as necrotic cells incubated for 24 hrs by Annexin-V-FITC/PI staining based flow cytometry analysis (reference value: 1.57%); assay type: functional
Ehrlich [8] = assay: Antitumor activity against mouse EAC cells xenografted in Swiss albino mouse assessed as reduction in tumor volume at 10 mg/kg, ip measured after 5 to 20 days; assay type: functional, organism-based; settings: time 5-20 day
MCF7 [9] = assay: Induction of apoptosis in human MCF7 cells assessed as early apoptotic cells incubated for 24 hrs by Annexin-V-FITC/PI staining based flow cytometry analysis (reference value: 0.51%); assay type: functional
HCT-116 [10] = assay: Induction of apoptosis in human HCT-116 cells assessed as late apoptotic cells incubated for 24 hrs by Annexin-V-FITC/PI staining based flow cytometry analysis (reference value: 0.16%); assay type: functional
HeLa [11] = assay: Induction of cell cycle arrest in human HeLa cells assessed as accumulation of cells at S phase measured after 24 hrs by PI/Rnase staining based flow cytometry analysis (reference value: 31.04 %); assay type: functional
HCT-116 [12] = assay: Induction of apoptosis in human HCT-116 cells assessed as necrotic cells incubated for 24 hrs by Annexin-V-FITC/PI staining based flow cytometry analysis (reference value: 1.34%); assay type: functional
MCF7 [13] = assay: Induction of cell cycle arrest in human MCF7 cells assessed as accumulation of cells at G1 phase measured after 24 hrs by PI/Rnase staining based flow cytometry analysis (reference value: 56.37%); assay type: functional
MCF7 [14] = assay: Induction of apoptosis in human MCF7 cells assessed as late apoptotic cells incubated for 24 hrs by Annexin-V-FITC/PI staining based flow cytometry analysis (reference value: 0.21%); assay type: functional
MCF7 [15] = assay: Induction of cell cycle arrest in human MCF7 cells assessed as accumulation of cells at S phase measured after 24 hrs by PI/Rnase staining based flow cytometry analysis (reference value: 28.77 %); assay type: functional
HeLa [16] = assay: Induction of cell cycle arrest in human HeLa cells assessed as accumulation of cell debris measured after 24 hrs by PI/Rnase staining based flow cytometry analysis (reference value: 1.33%); assay type: functional
HCT-116 [17] = assay: Induction of cell cycle arrest in human HCT-116 cells assessed as accumulation of cells at G2/M phase measured after 24 hrs by PI/Rnase staining based flow cytometry analysis (reference value: 17.66 %); assay type: functional
HCT-116 [18] = assay: Induction of apoptosis in human HCT-116 cells assessed as early apoptotic cells incubated for 24 hrs by Annexin-V-FITC/PI staining based flow cytometry analysis (reference value: 0.44%); assay type: functional
HeLa [19] = assay: Induction of cell cycle arrest in human HeLa cells assessed as accumulation of cells at G1 phase measured after 24 hrs by PI/Rnase staining based flow cytometry analysis (reference value: 52.69 %); assay type: functional
HeLa [20] = assay: Induction of apoptosis in human HeLa cells assessed as necrotic cells incubated for 24 hrs by Annexin-V-FITC/PI staining based flow cytometry analysis (reference value: 1.12 %); assay type: functional
MCF7 [21] = assay: Induction of cell cycle arrest in human MCF7 cells assessed as accumulation of cells at G2/M phase measured after 24 hrs by PI/Rnase staining based flow cytometry analysis (reference value: 14.86 %); assay type: functional
HCT-116 [22] = assay: Induction of cell cycle arrest in human HCT-116 cells assessed as accumulation of cells at G1 phase measured after 24 hrs by PI/Rnase staining based flow cytometry analysis (reference value: 47.28%); assay type: functional
HCT-116 [23] = assay: Induction of cell cycle arrest in human HCT-116 cells assessed as accumulation of cell debris measured after 24 hrs by PI/Rnase staining based flow cytometry analysis (reference value: 1.33%); assay type: functional
HeLa [24] = assay: Induction of cell cycle arrest in human HeLa cells assessed as accumulation of cells at G2/M phase measured after 24 hrs by PI/Rnase staining based flow cytometry analysis (reference value: 16.27 %); assay type: functional
HeLa [25] = assay: Induction of apoptosis in human HeLa cells assessed as late apoptotic cells incubated for 24 hrs by Annexin-V-FITC/PI staining based flow cytometry analysis (reference value: 0.13 %); assay type: functional
MCF7 [26] = assay: Induction of cell cycle arrest in human MCF7 cells assessed as accumulation of cell debris measured after 24 hrs by PI/Rnase staining based flow cytometry analysis (reference value: 1.61%); assay type: functional
HeLa [27] = assay: Induction of apoptosis in human HeLa cells assessed as early apoptotic cells incubated for 24 hrs by Annexin-V-FITC/PI staining based flow cytometry analysis (reference value: 0.41 %); assay type: functional
HCT-116 [28] = assay: Induction of cell cycle arrest in human HCT-116 cells assessed as accumulation of cells at S phase measured after 24 hrs by PI/Rnase staining based flow cytometry analysis (reference value: 17.66 %); assay type: functional

Question: What does the source list for `CC(=O)N1CCN(CC(=O)Nc2nc(Nc3ccccc3)sc2C#N)CC1`?
Answer: IC50 (HEp-2): 89 µM; IC50 (HCT-116 [1]): 65.2 µM; IC50 (HepG2): 78.4 µM; IC50 (MCF7 [2]): 61.9 µM; IC50 (HeLa [3]): 74.5 µM

Question: With `COc1cccc2c1C(=O)c1c(O)c3c(c(O)c1C2=O)C[C@@](O)(C(=O)CO)C[C@@H]3O[C@H]1C[C@H](N)[C@H](O)[C@H](C)O1` [DOXORUBICIN] as the molecule, how does the Activity (WISH) read?
Answer: The Activity was “Non-toxic”.

Question: What about the IC50 at 48 h [4] of the same molecule?
Answer: The IC50 at 48 h was 3.34 µM.

Question: And the Activity (WI-38)?
Answer: The Activity was “Non-toxic”.

Question: For `N#Cc1sc(Nc2ccccc2)nc1N1C(=N)SCC1=O`, which IC50 (HEp-2) is on record?
Answer: Its IC50 is 69.5 µM.

Question: What about the IC50 (HCT-116 [1]) of the same molecule?
Answer: Its IC50 is 44.1 µM.

Question: What about the IC50 (HepG2) of the same molecule?
Answer: Its IC50 is 35.3 µM.

Question: And the IC50 (MCF7 [2])?
Answer: Its IC50 is 22.5 µM.

Question: And the IC50 (HeLa [3])?
Answer: Its IC50 is 31.4 µM.

Question: For `N#Cc1sc(Nc2ccccc2)nc1NC(=O)CN1CCCCC1`, which IC50 at 48 h [5] is on record?
Answer: The IC50 at 48 h was 23.7 µM.

Question: And the Activity (WISH)?
Answer: Its Activity is “Non-toxic”.

Question: And the IC50 (HEp-2)?
Answer: The IC50 was 28.8 µM.

Question: And the IC50 at 48 h [4]?
Answer: The IC50 at 48 h was 21.2 µM.

Question: And the IC50 (HCT-116 [1])?
Answer: The IC50 was 14.2 µM.

Question: What about the IC50 (HepG2) of the same molecule?
Answer: Its IC50 is 30.5 µM.

Question: What about the Activity (WI-38) of the same molecule?
Answer: Its Activity is “Non-toxic”.

Question: And the IC50 (MCF7 [2])?
Answer: The IC50 was 16.7 µM.

Question: What about the IC50 (HeLa [3]) of the same molecule?
Answer: The IC50 was 22.8 µM.

Question: Which results are given for `N#Cc1sc(Nc2ccccc2)nc1NC(=O)CNNCC(=O)c1cc2ccccc2oc1=O`?
Answer: IC50 (HEp-2): 67.2 µM; IC50 (HCT-116 [1]): 37.6 µM; IC50 (HepG2): 49.4 µM; IC50 (MCF7 [2]): 34.1 µM; IC50 (HeLa [3]): 45.5 µM

Question: Which IC50 (HEp-2) does the source give for `CN1CCN(CC(=O)Nc2nc(Nc3ccccc3)sc2C#N)CC1` here?
Answer: Its IC50 is 94.7 µM.

Question: And the IC50 (HCT-116 [1])?
Answer: Its IC50 is 70.5 µM.

Question: What about the IC50 (HepG2) of the same molecule?
Answer: Its IC50 is 73.2 µM.

Question: What about the IC50 (MCF7 [2]) of the same molecule?
Answer: The IC50 was 52.7 µM.

Question: What about the IC50 (HeLa [3]) of the same molecule?
Answer: The IC50 was 67.8 µM.

Question: With `N#Cc1sc(Nc2ccccc2)nc1NC(=O)CNNCC(=O)c1ccccc1` as the molecule, how does the IC50 (HEp-2) read?
Answer: The IC50 was 64.7 µM.

Question: What about the IC50 (HCT-116 [1]) of the same molecule?
Answer: The IC50 was 36.5 µM.

Question: And the IC50 (HepG2)?
Answer: Its IC50 is 52.3 µM.

Question: And the IC50 (MCF7 [2])?
Answer: The IC50 was 39 µM.

Question: What about the IC50 (HeLa [3]) of the same molecule?
Answer: The IC50 was 47 µM.

Question: Which IC50 (HEp-2) does the source give for `N#Cc1sc(Nc2ccccc2)nc1NC(=O)CN1CCN(Cc2ccccc2)CC1` here?
Answer: Its IC50 is 82.5 µM.

Question: What about the IC50 (HCT-116 [1]) of the same molecule?
Answer: The IC50 was 56.9 µM.

Question: And the IC50 (HepG2)?
Answer: Its IC50 is 61.5 µM.

Question: And the IC50 (MCF7 [2])?
Answer: The IC50 was 45.3 µM.

Question: And the IC50 (HeLa [3])?
Answer: The IC50 was 53.2 µM.

Question: What does the source list for `N#Cc1sc(Nc2ccccc2)nc1NC(=O)CNNCC(=O)c1ccc(Cl)cc1`?
Answer: IC50 at 48 h [5]: 60.8 µM; inhibition in vivo at 10 mg/kg (Ehrlich [6]): > 50%; Activity (MCF7 [7]): 4.47%; Activity (Ehrlich [8]): Active; Activity (MCF7 [9]): 6.22%; Activity (HCT-116 [10]): 8.29%; Activity (HeLa [11]): 41.19%; Activity (WISH): Non-toxic; Activity (HCT-116 [12]): 2.2%; Activity (MCF7 [13]): 63.61%; IC50 (HEp-2): 26.9 µM; IC50 at 48 h [4]: 77.2 µM; Activity (MCF7 [14]): 19.17%; Activity (MCF7 [15]): 23.84%; IC50 (HCT-116 [1]): 11.6 µM; Activity (HeLa [16]): 2.17%; IC50 (HepG2): 15.2 µM; Activity (HCT-116 [17]): 16.05%; Activity (WI-38): Non-toxic; Activity (HCT-116 [18]): 21.42%; Activity (HeLa [19]): 43.64%; Activity (HeLa [20]): 2.66%; Activity (MCF7 [21]): 12.55%; Activity (HCT-116 [22]): 51.96%; IC50 (MCF7 [2]): 13.3 µM; Activity (HCT-116 [23]): 2.25%; Activity (HeLa [24]): 15.23%; Activity (HeLa [25]): 12.35%; Activity (MCF7 [26]): 1.58%; Activity (HeLa [27]): 19.17%; Activity (HCT-116 [28]): 31.99%; IC50 (HeLa [3]): 10.6 µM

Question: Which IC50 (HEp-2) does the source give for `CCN(CC)CCNC(=O)c1c(C)[nH]c(/C=C2\C(=O)Nc3ccc(F)cc32)c1C` [SUNITINIB] here?
Answer: The IC50 was 7.58 µM.

Question: What about the IC50 (HCT-116 [1]) of the same molecule?
Answer: The IC50 was 8.53 µM.

Question: What about the IC50 (HepG2) of the same molecule?
Answer: The IC50 was 12.3 µM.

Question: And the IC50 (MCF7 [2])?
Answer: The IC50 was 5.19 µM.

Question: And the IC50 (HeLa [3])?
Answer: Its IC50 is 7.48 µM.

Question: With `Cc1ccc(C(=O)CNNCC(=O)Nc2nc(Nc3ccccc3)sc2C#N)cc1` as the molecule, how does the IC50 (HEp-2) read?
Answer: Its IC50 is greater than 100 µM.

Question: What about the IC50 (HCT-116 [1]) of the same molecule?
Answer: The IC50 was 81.6 µM.

Question: What about the IC50 (HepG2) of the same molecule?
Answer: The IC50 was 96.2 µM.

Question: What about the IC50 (MCF7 [2]) of the same molecule?
Answer: Its IC50 is 84.1 µM.

Question: And the IC50 (HeLa [3])?
Answer: The IC50 was greater than 100 µM.
